Source: patent US20230382916A1, “HETEROARYL HETEROCYCLIC COMPOUNDS AND USES THEREOF” (HUTCHISON MEDIPHARMA LIMITED, priority 2020, published 2023)

Assays:
[1] = Stability test in liver microsomes (mouse); assay type: in vitro ADME; conditions: mouse liver microsomes 0.5 mg/mL, 1 μM compound
Experimental: (§1) Both male CD-1 mouse pooled liver microsomes and male SD rat pooled liver microsomes were purchased from BioreclamationIVT Corporation, USA.
(§2) The test compound stock solution was diluted with an organic solvent (usually a mixture of acetonitrile, methanol and water with various ratios, depending on the solubility of the compound, if necessary, 1 N hydrochloric acid or 1 N sodium hydroxide would be added to facilitate solubilization) to the 0.1 mM (the final concentration of the compound in the reaction system was 1 μM) and the concentration percentage of the organic solvents in the incubation system no more than 1% (wherein the percentage of DMSO was required to be no more than 0.1%). An appropriate amount of 100 mM NADP, 500 mM G-6-P and 100 Unit/mL G-6-PDH were mixed and diluted with ultrapure water (the final system contains 1 mM NADP, 5 mM G-6-P and 1 Unit/mL G-6-PDH), pre-incubated in a 37° C. water bath for 10 minutes and then placed on ice for use as a NADPH regeneration solution. 20 mg/mL liver microsomes solution and 200 mM phosphate buffer were mixed, and diluted with ultrapure water to give a liver microsomes solution containing 2.5 mg/mL liver microsomes (the final concentration of the reaction system is 0.5 mg/mL) and 50 mM phosphate buffer. The diluted liver microsomes solution was mixed with 0.1 mM compound solution, a mixture of 100 mM EDTA, 300 mM MgCl2 solution, 200 mM phosphate buffer (the final system was 3 mM MgCl2, 1 mM EDTA and 50 mM phosphate buffer) and water in an appropriate volume was added. Finally, the NADPH regeneration solution was added, then the reaction solution was placed in a 37° C. water bath to start the reaction (the reaction time was 30 minutes), and the reaction was stopped by adding the ice-cold acetonitrile reaction stopping solution containing the internal standard. The 0-minute sample was not incubated in a 37° C. water bath, and its difference from the 30-minute sample further lies in that the ice-cold acetonitrile reaction stopping solution containing the internal standard was added first, and then the NADPH regeneration solution was added. The sample added with the reaction stopping internal standard solution was vortexed and mixed well, and then centrifuged at 4400 rpm for 10 minutes. The supernatant was taken and diluted ten times with 50% methanol for LC-MS/MS analysis.
(§3) LC-MS/MS was used to determine the concentration of the compound in the sample. The percentage of the remaining compound after 30 minutes of incubation comparing with that in the 0-minute sample was calculated using the peak area ratio of the compound to the internal standard as an indicator, to evaluate the metabolic stability of the compound.

[2] = test system: anti-IgD antibody-induced B cell activation in mice whole blood; experiment: In vivo efficacy of the inhibitory effect on BTK target: anti-IgD antibody-induced B cell activation in mice whole blood after oral dosing; design: species or system mouse; conditions: 5 mg/kg oral single dose, 16 h
Experimental: Objects: B cells in mice whole blood were induced and activated by the anti-IgD antibody, and the inhibitory effect of the compound of the present invention on B cell activation in vivo was studied, so as to determine the inhibitory effect of the compound of the present invention on the BTK target in vivo.
Methods: C57BL/6 mice (female, 18-20 g, purchased from Shanghai Lingchang Biotechnology Co., Ltd.) were grouped according to Table 1.
The animals of each group were administered, then were placed in CO2 for anesthesia at designated time points, blood samples were taken from […] via retro-orbital bleeding, and heparin was used for anticoagulation; 90 μL of whole blood was taken from mice of each group, and added to a 96 well culture plate, and anti-mouse IgD antibody (BIO-RAD, Cat #MCA4693) was added to each well to a final concentration of […] (respectively for each drug-treated group and anti-IgD antibody-inducted vehicle group); in addition, 90 μL of whole blood of mice in the vehicle group was taken and added to the 96-well culture plate, and PBS (phosphate buffer, GIBCO, Cat #C20012500BT) was added to each well to a final concentration of 0.01 μg/L (namely, the vehicle control group); Each group was mixed well and incubated in a 37° C./5% CO2 incubator for 4 hours. In addition, the blood of mice in the drug-treated group was centrifuged to separate plasma for blood concentration analysis.
B cell activation ratio=percentage of CD69^+CD19^+ double positive B cells/percentage of CD19^+ single positive B cells
Inhibition ratio=(percentage of B cell activation ratio in anti-IgD antibody-induced vehicle group−percentage of B cell activation ratio in drug-treated group)/(percentage of B cell activation ratio in anti-IgD antibody−induced vehicle group-percentage of B cell activation ratio in vehicle control group)×100%
All data are represented by mean±standard error. For the comparison between each drug-treated group and the anti-IgD antibody-induced vehicle group, p value was calculated by Graphpad Prism using one-way ANOVA analysis of variance and Dunnett's test, and for the comparison between each drug-treated group, p value was calculated by using unpaired t test.

[3] = Stability test in liver microsomes (rat); assay type: in vitro ADME; conditions: rat liver microsomes 0.5 mg/mL, 1 μM compound
Experimental: as §1, §2, §3

[4] = test system: idiopathic thrombocytopenic purpura induced by anti-mouse CD41 antibodies; experiment: Idiopathic thrombocytopenic purpura induced by anti-CD41 antibody in mice, level of platelets; assay type: in vivo
Experimental: Male C57BL/6 mice were purchased from Shanghai Lingchang Biotechnology Co., Ltd. (certificate number 20180003011079, initial body weight of 18-20 grams), and were randomly grouped according to Table 4, with 8 mice in each group. […] When modeling, each mouse was intraperitoneally injected with 200 μL of PBS solution containing […] of anti-mouse CD41 antibodies (BD, Cat #: 553487, Lot #: 7026765).
Eight hours and twenty-four hours after modeling, the whole blood was collected and placed in a centrifuge tube coated with 10% citrate-phosphate-dextrose-adenine (CPDA), and the level of platelets (PLT) in the whole blood was measured by an XT-2000i (SYSMEX) automatic blood analyzer (Shanghai Laboratory Animal Research Centre Sino-British SIPPR/B & K Lab Animal Ltd).
The average level of platelets in peripheral blood was analyzed with Graphpad statistical software by one way ANOVA followed by Fisher LSD multiple comparison test, and the p value was calculated, wherein *p<0.05 indicated a statistically significant difference compared with the vehicle control group, **p<0.01 indicated a statistically extremely significant difference compared with the vehicle control group, and ##p<0.01 indicated a statistically extremely significant difference compared with the normal group.
RR %=(PLTtreatment−PLTmodel)/(PLTnaive−PLTmodel)×100%.

Structure (SMILES): C[C@H]1CN(C2COC2)C[C@H](C)N1c1ccc(Nc2cc(-c3ccnc(-n4ccn5c6c(cc5c4=O)CC(C)(C)C6)c3CO)cn(C)c2=O)nc1 [Compound 1, 2-(5-((5-((2S,6S)-2,6-dimethyl-4-(oxetan-3-yl)piperazin-1-yl)pyridin-2-yl)amino)-3′-(hydroxymethyl)-1-methyl-6-oxo-1,6-dihydro-[3,4′-bipyridin]-2′-yl)-7,7-dimethyl-7,8-dihydro-2H-cyclopenta[4,5]pyrrolo[1,2-a]pyrazin-1(6H)-one]
- MLM, percentage of the remaining compound after 30 minutes of incubation [1]: 91.6%
- Inhibition ratio (%) on B cell activation [2]: 60%
- B cell activation ratio (the population of activated B cells in total B cells) ([2]; mean ± standard error): 16.0 ± 3.9
- Inhibition ratio (%) on B cell activation ([2]; listed as compound 1): 60%
- RLM, percentage of the remaining compound after 30 minutes of incubation [3]: 87.9%
- recovery rate of platelets ([4]; 0.004 mg/kg oral single dose, 8 hours after modeling): 25%
- recovery rate of platelets ([4]; 0.004 mg/kg oral single dose, 24 hours after modeling): 5%
- recovery rate of platelets ([4]; 0.04 mg/kg oral single dose, 8 hours after modeling): 37%
- recovery rate of platelets ([4]; 0.04 mg/kg oral single dose, 24 hours after modeling): 21%
- recovery rate of platelets ([4]; 0.4 mg/kg oral single dose, 8 hours after modeling): 44%
- recovery rate of platelets ([4]; 0.4 mg/kg oral single dose, 24 hours after modeling): 29%
- recovery rate of platelets ([4]; 4 mg/kg oral single dose, 8 hours after modeling): 51%
- recovery rate of platelets ([4]; 4 mg/kg oral single dose, 24 hours after modeling): 29%
- minimum effective dose ([4]; single oral dose, platelets 8 hours after modeling): 0.04 mg/kg
